Assay results: US5696143A, “Benz [G] indazolyl derivatives for the treatment of inflammation” (priority 1994, dated 1997)

Key:
[1] = system: rat paw edema (carrageenan); assay: Rat Carrageenan Foot Pad Edema Test; type: in vivo, Male Sprague-Dawley rats; settings: @ 30 mg/kg body weight, oral, 1 h before carrageenan; foot volume 3 h after injection; % decrease from control paw volume
Method: Rat Carrageenan Foot Pad Edema Test
The carrageenan foot edema test was performed with materials, reagents and procedures essentially as described by Winter, et al., (Proc. Soc. Exp. Biol. Med., 111, 544 (1962)). Male Sprague-Dawley rats were selected in each group so that the average body weight was as close as possible. Rats were fasted with free access to water for over sixteen hours prior to the test. The rats were dosed orally (1 mL) with compounds suspended in vehicle containing 0.5% methylcellulose and 0.025% surfactant, or with vehicle alone. One hour later a subplantar injection of 0.1 mL of 1% solution of carrageenan/sterile 0.9% saline was administered and the volume of the injected foot was measured with a displacement plethysmometer connected to a pressure transducer with a digital indicator. Three hours after the injection of the carrageenan, the volume of the foot was again measured. The average foot swelling in a group of drug-treated animals was compared with that of a group of placebo-treated animals and the percentage inhibition of edema was determined (Otterhess and Bliven, Laboratory Models for Testing NSAIDs, in Non-steroidal Anti-Inflammatory Drugs, (J. Lombardino, ed. 1985)).

[2] = target: T1, Human COX II (Homo sapiens, UniProt P35354); assay: COX II activity in vitro (PGE2 formed, ELISA; recombinant enzyme, baculovirus/SF9 insect cell membranes); type: biochemical; settings: arachidonic acid 10 μM; 10-20 min pre-incubation; pH 8.0; read-out: Human COX II ID50
T1 construct: A 2.0 kb fragment containing the coding region of either human or murine COX-I or human or murine COX-II; made in house; host or cells: SF9 insect cells (recombinant baculovirus, transfer vector pVL1393)
T1 sequence (P35354 18-604): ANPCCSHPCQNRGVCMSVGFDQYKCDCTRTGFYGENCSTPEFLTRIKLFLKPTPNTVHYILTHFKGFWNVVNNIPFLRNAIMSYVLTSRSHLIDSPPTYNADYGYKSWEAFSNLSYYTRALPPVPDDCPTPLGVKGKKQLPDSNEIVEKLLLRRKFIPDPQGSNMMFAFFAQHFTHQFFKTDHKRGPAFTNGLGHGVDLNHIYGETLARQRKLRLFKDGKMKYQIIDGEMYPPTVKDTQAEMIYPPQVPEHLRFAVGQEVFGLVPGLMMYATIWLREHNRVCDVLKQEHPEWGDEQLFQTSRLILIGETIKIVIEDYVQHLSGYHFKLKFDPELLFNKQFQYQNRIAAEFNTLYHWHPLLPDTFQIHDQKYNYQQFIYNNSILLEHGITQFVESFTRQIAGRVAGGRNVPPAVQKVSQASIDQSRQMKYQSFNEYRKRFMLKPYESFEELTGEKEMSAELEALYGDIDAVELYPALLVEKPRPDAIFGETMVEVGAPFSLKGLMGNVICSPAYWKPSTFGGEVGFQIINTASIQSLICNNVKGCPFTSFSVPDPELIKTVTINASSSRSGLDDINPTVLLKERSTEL
Method: (§1) Evaluation of COX I and COX II activity in vitro
(§2) The COX II inhibition activity of the compounds of this invention illustrated in the Examples was determined by the following methods.
(§3) a. Preparation of recombinant CQX baculoviruses
(§4) A 2.0 kb fragment containing the coding region of either human or murine COX-I or human or murine COX-II was cloned into a BamH1 site of the baculovirus transfer vector pVL1393 (Invitrogen) to generate the baculovirus transfer vectors for COX-I and COX-II in a manner similar to the method of D. R. O'Reilly et al (Baculovirus Expression Vectors: A Laboratory Manual (1992)). Recombinant baculoviruses were isolated by transfecting 4 μg of baculovirus transfer vector DNA into SF9 insect cells ([…]) along with 200 ng of linearized baculovirus plasmid DNA by the calcium phosphate method. See M. D. Summers and G. E. Smith, A Manual of Methods for Baculovirus Vectors and Insect Cell Culture Procedures, Texas Agric. Exp. Station Bull. 1555 (1987). Recombinant viruses were purified by three rounds of plaque purification and high titer (10E7-10E8 pfu/ml) stocks of virus were prepared. For large scale production, SF9 insect cells were infected in 10 liter fermentors (0.5×10^6 /ml) with the recombinant baculovirus stock such that the multiplicity of infection was 0.1. After 72 hours the cells were centrifuged and the cell pellet homogenized in Tris/Sucrose (50 mM: 25%, pH 8.0) containing 1% 3-[(3-cholamidopropyl)dimethylammonio]-1-propanesulfonate (CHAPS). The homogenate was centrifuged at 10,000×G for 30 minutes, and the resultant supernatant was stored at -80° C. before being assayed for COX activity.
(§5) b. Assay for COX I and COX II activity:
(§6) COX activity was assayed as PGE2 formed/μg protein/time using an ELISA to detect the prostaglandin released. CHAPS-solubilized insect cell membranes containing the appropriate COX enzyme were incubated in a potassium phosphate buffer (50 mM, pH 8.0) containing epinephrine, phenol, and heme with the addition of arachidonic acid (10 μM). Compounds were pre-incubated with the enzyme for 10-20 minutes prior to the addition of arachidonic acid. Any reaction between the arachidonic acid and the enzyme was stopped after ten minutes at 37° C./room temperature by transferring 40 μl of reaction mix into 160 μl ELISA buffer and 25 μM indomethacin. The PGE2 formed was measured by standard ELISA technology (Cayman Chemical).

[3] = target: T2, Human COX I (Homo sapiens, UniProt P23219); assay: COX I activity in vitro (PGE2 formed, ELISA; recombinant enzyme, baculovirus/SF9 insect cell membranes); type: biochemical; settings: arachidonic acid 10 μM; 10-20 min pre-incubation; pH 8.0; read-out: Human COX I ID50
T2 construct: A 2.0 kb fragment containing the coding region of either human or murine COX-I or human or murine COX-II; made in house; host or cells: SF9 insect cells (recombinant baculovirus, transfer vector pVL1393)
T2 sequence (P23219 24-599): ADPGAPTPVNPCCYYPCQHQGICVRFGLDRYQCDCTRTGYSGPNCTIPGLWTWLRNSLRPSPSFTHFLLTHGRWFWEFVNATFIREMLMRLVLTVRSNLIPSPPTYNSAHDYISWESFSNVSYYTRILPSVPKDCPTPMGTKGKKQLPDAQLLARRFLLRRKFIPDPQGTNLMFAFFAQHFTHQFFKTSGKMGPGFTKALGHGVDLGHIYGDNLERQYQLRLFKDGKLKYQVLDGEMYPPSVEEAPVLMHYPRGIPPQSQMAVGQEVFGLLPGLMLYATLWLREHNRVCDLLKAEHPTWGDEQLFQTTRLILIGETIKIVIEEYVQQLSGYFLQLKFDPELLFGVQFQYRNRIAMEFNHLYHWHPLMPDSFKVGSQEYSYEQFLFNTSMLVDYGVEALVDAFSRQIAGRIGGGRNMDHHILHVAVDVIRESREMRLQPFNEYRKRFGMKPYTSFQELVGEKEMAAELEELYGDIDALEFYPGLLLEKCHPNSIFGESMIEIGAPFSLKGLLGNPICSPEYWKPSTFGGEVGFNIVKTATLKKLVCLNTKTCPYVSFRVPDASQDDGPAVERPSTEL
Method: as §1, §2, §3, §4, §5, §6

SMILES	% Inhibition (rat paw edema) [1]	IC50 [2]	IC50 [3]
COc1ccc2c(ccc3c(C(F)F)nn(-c4ccc(S(N)(=O)=O)cc4)c32)c1Cl [Example 1, 4-[6-Chloro-3-(difluoromethyl)-7-methoxy-1H-benz[g]indazol-1-yl]benzenesulfonamide]	29%	1 µM	> 100 µM
COc1ccc2c(ccc3c(C(F)F)nn(-c4ccc(S(N)(=O)=O)cc4)c32)c1 [Example 2, 4-[3-(difluoromethyl)-7-methoxy-1H-benz[g]indazol-1-yl]benzenesulfonamide]	24%	< 0.1 µM	0.8 µM
COc1ccc2c(ccc3c(C(F)(F)F)nn(-c4ccc(S(N)(=O)=O)cc4)c32)c1 [Example 3, 4-[7-Methoxy-3-(trifluoromethyl)-1H-benz[g]indazol-1-yl]benzenesulfonamide]		< 0.1 µM	> 100 µM
COc1ccc2c(ccc3cnn(-c4ccc(S(N)(=O)=O)cc4)c32)c1 [Example 4, 4-[7-Methoxy-1H-benz[g]indazol-1-yl]benzenesulfonamide]		> 100 µM	> 100 µM
NS(=O)(=O)c1ccc(-n2nc(C(F)(F)F)c3ccc4ccccc4c32)cc1 [Example 5, 4-[3-(Trifluoromethyl)-1H-benz[g]indazol-1-yl]benzenesulfonamide]		> 100 µM	> 100 µM
